# What was measured:
# [1] = test system: first five CpGs of the Nrf2 gene promoter; test: Bisulfite genomic sequencing of TRAMP prostate tissues; type: in vivo, mouse; settings: control 98% methylation
# Experimental: Genomic DNA was isolated from the control or DIM treated TRAMP C1 cells and TRAMP dorso-lateral prostate tissues collected from control and DIM treated groups pooled and homogenized using the DNeasy tissue kit (Qiagen, Valencia, Calif., U.S.A.). The genomic DNAs were extracted and subjected to bisulfite conversion carried out using 750 ng of genomic DNA and applying to EZ DNA Methylation Gold Kits (Zymo Research Corp., Orange, Calif., U.S.A.) following the manufacturer's instructions. The converted DNA was amplified by PCR utilizing Platinum PCR SuperMix (Invitrogen, Grand Island, N.Y., U.S.A.) with a set of specific primers, forward: 5′-AGTTATGAAGTAGTAGTAAAAA-3′ (SEQ ID NO: 37) and reverse: 5′-AATATAATCTCATAAAACCCCAC-3 (SEQ ID NO: 38), amplifying the first five CpGs located between −1266 and −1086 of the promoter region of Nrf2 with the translation initiation site defined as +1 (14, 20). Gel extraction using Qiaquick™ gel extraction kit (Qiagen, Valencia, Calif., U.S.A.) were used to purify the PCR products, then cloned into pCR4 TOPO vector using a TOPO™ TA Cloning kit (Invitrogen, Grand Island, N.Y., U.S.A.), Plasmids DNA from at least twenty colonies per for treatment were prepared using QIAprep Spin Miniprep Kit (Qiagen, Valencia Calif., U.S.A.) and sequenced (Genwiz, Piscataway, N.J., U.S.A.).
# [2] = test system: first 5 CpGs in the promoter region of Nrf2 gene; test: Bisulfite genomic sequencing of TRAMP C1 cells; type: cell-based, mouse; settings: 5 days, untreated control 96.8%
# Experimental: The DIM used in the study contains approximately 98% of DIM purchased from Sigma-Aldrich t St. Louis, Mo., USA), TRAMP C1 cells (provided by Dr. Barbara Foster, Department of Pharmacology and Therapeutics, Roswell Park Cancer institute, Buffalo. NY), originally derived from TRAMP prostate tumor, were cultured in Dulbecco's Modified Eagle's Medium (Invitrogen Corp., Carlsbad, Calif. U.S.A.) supplemented with 10% (V/V) fetal bovine serum (FBS) (Invitrogen Corp., Grand Island, N.Y., U.S.A.), penicillin 100 U/ml, and streptomycin 100 μg/ml (Invitrogen Corp., Grand Island, N.Y., U.S.A.), Cells were maintained in a humidified incubator with 5% CO2 at 37° C. Cells were seeded in 10 cm plates for 24 h and then treated with 0.1% DMSO (control) or different concentrations of DIM in 1% FBS containing medium for 5 days. The medium was changed every 2 days (20),
# Genomic DNA was isolated from the control or DIM treated TRAMP C1 cells and TRAMP dorso-lateral prostate tissues collected from control and DIM treated groups pooled and homogenized using the DNeasy tissue kit (Qiagen, Valencia, Calif., U.S.A.). The genomic DNAs were extracted and subjected to bisulfite conversion carried out using 750 ng of genomic DNA and applying to EZ DNA Methylation Gold Kits (Zymo Research Corp., Orange, Calif., U.S.A.) following the manufacturer's instructions. […]
# [3] = test system: DNMT1; test: Western blot in TRAMP C1 cells; type: cell-based, mouse
# Experimental: The DIM used in the study contains approximately 98% of DIM purchased from Sigma-Aldrich t St. Louis, Mo., USA), TRAMP C1 cells (provided by Dr. Barbara Foster, Department of Pharmacology and Therapeutics, Roswell Park Cancer institute, Buffalo. NY), originally derived from TRAMP prostate tumor, were cultured in Dulbecco's Modified Eagle's Medium (Invitrogen Corp., Carlsbad, Calif. U.S.A.) supplemented with 10% (V/V) fetal bovine serum (FBS) (Invitrogen Corp., Grand Island, N.Y., U.S.A.), penicillin 100 U/ml, and streptomycin 100 μg/ml (Invitrogen Corp., Grand Island, N.Y., U.S.A.), Cells were maintained in a humidified incubator with 5% CO2 at 37° C. Cells were seeded in 10 cm plates for 24 h and then treated with 0.1% DMSO (control) or different concentrations of DIM in 1% FBS containing medium for 5 days. The medium was changed every 2 days (20), The TRAMP C1 cells or dorso-lateral prostate tissues collected from treated and control groups were pooled and homogenized with RIPA buffer (Cell Signaling Technology, Danvers, Mass., U.S.A.) and 10 μg/ml protease inhibitor cocktail (EMD Chemicals, Philadelphia, Pa., U.S.A.). Protein (20 μg) was loaded onto 4-15% SDS-PAGE (Bio-Rad Laboratories, Hercules, Calif., U.S.A.). After separation by SDS-PAGE, the protein was transferred onto nitrocellulose membrane (Millipore Corp., Billerica, Mass., U.S.A.), and then was blocked in 5% bovine serum albumin (BSA) (Fisher Scientific, Fair Law, J. U.S.A.) in tris buffer saline tween-20 (TBST) solution for 1 h. Membranes were probed using the different mono- or polyclonal-antibodies (1:1000) overnight at 4″C. Blots were washed with TBST solution for 15 min 4 times and incubated with the respective secondary antibodies for 1 hr. After washing min 4 times with TBST solution, the immunoreactive bands were determined by adding SuperSignal West Femto mix (1:1 mix of stable peroxide buffer and luminol/enhancer solution (Thermo Scientific, Rockford, Ill., U.S.A.) to detect immunoreactive bands. The bands were visualized and quantified by BioRad ChemiDoc XRS system (Hercules, Calif., U.S.A.). The primary antibodies used were β-actin, Nrf2, NQO1 (Santa Cruz Biotechnology, Santa Cruz, Calif., U.S.A.), HDAC1, HDAC2, HDAC3, HDAC4 (Cell Signaling Technology Inc., Danvers Mass., U.S.A.), HDAC8 (Proteintech Group Inc., Chicago, Ill., U.S.A.) and DNMT1, DNMT3a, DNMT3b (Imgenex, San Diego, Calif., U.S.A.). The secondary antibodies used were goat polyclonal IgG for β-actin and NQO1, rabbit polyclonal IgG for Nrf2, HDAC1, HDAC2, HDAC3, HDAC4 and HDAC8, and mouse polyclonal IgG for DNMT1, DNMT3a, DNMT3b (Santa Cruz Biotechnology, Santa Cruz, Calif., U.S.A.),
compound,measurement,setting,value
"c1ccc2c(Cc3c[nH]c4ccccc34)c[nH]c2c1 [DIM, 3,3′-diindolylmethane]",methylation of the first five CpGs of Nrf2 promoter,[1]; D-G1,37.6%
same,methylation of the first five CpGs of Nrf2 promoter,[1]; D-G2,54.4%
same,methylation of the first 5 CpGs of Nrf2 promoter,[2]; 2.5 μM,73.7%
same,methylation of the first 5 CpGs of Nrf2 promoter,[2]; 5 μM,55.8%
same,DNMT1 protein level,[3],suppressed

# Reference: US8916604B2, “Compositions and methods for epigenetic modification of nucleic acid sequences” (Rutgers, The State University of New Jersey, priority 2011, dated 2014)
